Measurements reported in patent US20230065562A1, “DUAL CONTROLS FOR THERAPEUTIC CELL ACTIVATION OR ELIMINATION” (Bellicum Pharmaceuticals, Inc., priority 2015, published 2023).

Tests used:
[1] = system: iCasp9-transduced, CD19-selected allodepleted T cells; test: Induction of apoptosis with AP20187 in gene-modified allodepleted T cells (annexin V/7-AAD); assay type: cell-based, human
Procedure: Suicide gene functionality was assessed by adding a small molecule synthetic homodimerizer, AP20187 (Ariad Pharmaceuticals; Cambridge, Mass.), at 10 nM final concentration the day following CD19 immunomagnetic selection. Cells were stained with annexin V and 7-amino-actinomycin (7-AAD)(BD Pharmingen) at 24 hours and analyzed by flow cytometry. Cells negative for both annexin V and 7-AAD were considered viable, cells that were annexin V positive were apoptotic, and cells that were both annexin V and 7-AAD positive were necrotic. The percentage killing induced by dimerization was corrected for baseline viability as follows: Percentage killing=100%−(% Viability in AP20187-treated cells÷% Viability in nontreated cells).
Cells were maintained in T cell medium containing 50 U/ml IL-2 until 22 days after transduction. A portion of cells was reactivated on 24-well plates coated with […] OKT3 and 1 µg/ml anti-CD28 (Clone CD28.2, BD Pharmingen, San Jose, Calif.) for 48 to 72 hours. CD19 expression and suicide gene function in both reactivated and non-reactivated cells were measured on day 24 or 25 post transduction.
The day following immunomagnetic selection, 10 nM of the chemical inducer of dimerization, AP20187, was added to induce apoptosis, which appeared within 24 hours. […] Killing efficiency after correction for baseline viability was about 92.9%±3.8%. Large-scale CD19 selection produced cells that were killed with similar efficiency as small-scale selection: mean viability with and without AP20187, and percentage killing, in large and small scale were about 3.9%, about 84.0%, about 95.4% (n=3) and about 6.6%, about 79.3%, about 91.4% (n=5) respectively. AP20187 was non-toxic to non-transduced cells: viability with and without AP20187 was about 86%±9% and 87%±8% respectively (n=6).
To assess the stability of transgene expression and function, cells were maintained in T cell culture medium and low dose IL-2 (50 U/ml) until 24 days after transduction. A portion of cells was then reactivated with OKT3/anti-CD28. CD19 expression was analyzed by flow cytometry 48 to 72 hours later, and suicide gene function was assessed by treatment with 10 nM AP20187. The obtained are for cells from day 5 post transduction (ie, 1 day after CD 19 selection) and day 24 post transduction, with or without 48-72 hours of reactivation (5 experiments). In 2 experiments, CD25 selection was performed after OKT3/αCD28 activation to further enrich activated cells. Error bars represent standard deviation. * indicates p<0.05 when compared to cells from day 5 post transduction. By day 24, surface CD19 expression fell from about 98%±1% to about 88%±4% (p<0.05) with a parallel decrease in mean fluorescence intensity (MFI) from 793±128 to 478±107 (p<0.05) (see FIG. 13B). Similarly, there was a significant reduction in suicide gene function: residual viability was 19.6±5.6% following treatment with AP20187; after correction for baseline viability of 54.8±20.9%, this equated to killing efficiency of only 63.1±6.2%.

transduced T cells = test: T cell caspase assay (IncuCyte, caspase 3/7 green reagent); assay type: cell-based, human
Procedure: To enable detection of apoptosis using the IncuCyte instrument, 2 μM of IncuCyte™ Kinetic Caspase-3/7 Apoptosis reagent (Essen Bioscience, 4440) were add to each well to reach a total volume of 200 μl. The plates were centrifuged for 5 min at 400×g and placed inside the IncuCyte (Dual Color Model 4459) to monitor green fluorescence every 2-3 hours for a total of 48 hours at 10× objective. Image analysis was performed using the “Tcells_caspreagent_phase_green_10×_MLD” processing definition. The “Total Green Object Integrated Intensity” metric is used to quantify caspase activation. Each condition was performed in duplicates and each well was imaged at 4 different locations.
To enable detection of apoptosis using the IncuCyte instrument, 2 μM of IncuCyte™ Kinetic Caspase-3/7 Apoptosis reagent (Essen Bioscience, 4440) was added to each well to reach a total volume of 200 μl. The plates were centrifuged for 5 min at 400×g and placed inside the IncuCyte (Dual Color Model 4459) to monitor green fluorescence every 2-3 hours for a total of 48 hours at 10× objective. Image analysis was performed using the “Tcells_caspreagent_phase_green_10×_MLD” processing definition. The “Total Green Object Integrated Intensity” metric and the “Phase Object Confluence (Percent)” were used to quantify caspase activation. Each condition was performed in duplicate and each well was imaged at 4 different locations.

[2] = system: iRmC9 T cells (pBP1327, GFP-Fluc); test: In vivo apoptotic activation in NSG mice, iRmC9 T cells (IVIS imaging, spleen FACS); parameters: species or system mouse; conditions: 5 mg/kg rimiducid or 10 mg/kg rapamycin i.p.
Procedure: PBMCs from donor 676 were activated and co-transduced with one of the off-switches and GFP-Fluc retroviruses. Eleven days after transduction, cells were analyzed for transduction efficiency with GFP and anti-CD3/anti-CD19 antibodies (FIG. 109A). […] The CD19^+ MFI for the different T cell populations were: iC9=15.07, iRC9=14.38, and iRmC9=13.39. The cells were collected, counted, washed, and resuspended at 1×10^6 cells in 100 μl PBS for each tail vein mouse injection (Table 10) (time=−18 hr). […] IVIS imaging was performed at −14, 0, 5, 24 and 29 hours. Mice were sacrificed and spleens were collected for FACS analysis with hCD3, hCD19 and mCD45 antibodies. […] The higher percentage of remaining iRmC9 T cells observed may be due to an artifact of normalizing the no drug group.
PBMCs from donor 676 were activated and co-transduced with retroviruses encoding the pBP0220, 1310, 1327 vectors and the GFP-Fluc plasmid. (FIG. 109A) Eleven days post transduction, the cells were analyzed for CD19 and GFP transduction efficiency prior to injection into mice. (FIGS. 109B & C) NSG mice were injected i.v. with 107 T cells co-transduced with GFP-Fluc per mouse and suicide drugs were injected i.p. the next day. Bioluminescence of cells was assessed at −14, 0, 5, 24, and 29 hours post-drug administration. (FIG. 109D) At 29-h post-drug treatment, mice were euthanized and spleens were collected for flow cytometry analysis with antibodies to hCD3, […], and mCD45

[3] = system: HLA-A2+PRAME+ U2OS osteosarcoma; test: iMC-PRAME TCR cytotoxicity and IL-2 secretion against U2OS; assay type: cell-based
From the text: The Go156 TCR is a negative control TCR.

[4] = system: T cells expressing ΔC9 alone (pBP1501); test: T cell killing assay with caspase 3/7 green reagent monitored by IncuCyte, negative control ΔC9; assay type: cell-based, human; conditions: increasing doses, FIG. 108B
From the text: To determine the functionality of these switches in activated T cells, retroviral supernatants were produced and transduced into PBMCs activated from 3 separate donors.

[5] = 10 nM AP20187, day after CD19 selection
[6] = day 24 post transduction, non-reactivated
[7] = large-scale CD19 selection (n=3)
[8] = small-scale CD19 selection (n=5)

Structure (SMILES)	killing efficiency after correction for baseline viability [1, 5]	viable cells (annexin V and 7-AAD negative) at 24 hours [1, 5]	killing ([1]; CD25 negative fraction after reactivation)	killing efficiency ([1]; OKT3/αCD28-reactivated cells, day 24 or 25)	killing efficiency ([1]; day 5 post transduction)	killing efficiency [1, 6]	residual viability following AP20187 [1, 6]	apoptosis after treatment with dimerizer ([1]; iCasp9-modified donor T cells)	mean viability with AP20187 [1, 7]	percentage killing [1, 7]	mean viability with AP20187 [1, 8]	percentage killing [1, 8]	dimerization/activation of FKBP.FRB.Δcasp9 (iRC9) (transduced T cells; 20 nM rimiducid)	concentration at which iC9 was observed to be activated (transduced T cells; MC-Rap + CAR + iC9 constructs)	iRmC9 T cells remained in splenocytes (normalized to no drug group) ([2]; spleen FACS, FIG. 109D)	removal of iRmC9 T cells (IVIS imaging) ([2]; NSG mice, FIGS. 109B & C)	iMC-PRAME TCR-mediated cytotoxicity against U2OS ([3]; FIG. 119A)	IL-2 secretion, PRAME TCR with rimiducid-driven iMC costimulation, U2OS ([3]; FIG. 119B)	activity of negative control ΔC9 alone (pBP1501) in T cells [4]
CC[C@H](C(=O)N1CCCC[C@H]1C(=O)O[C@H](CCc1ccc(OC)c(OC)c1)c1cccc(OCC(=O)NCC(CNC(=O)COc2cccc([C@@H](CCc3ccc(OC)c(OC)c3)OC(=O)[C@@H]3CCCCN3C(=O)[C@@H](CC)c3cc(OC)c(OC)c(OC)c3)c2)CN(C)C)c1)c1cc(OC)c(OC)c(OC)c1 [AP20187]	about 92.9%±3.8	about 5.5%±2.5	78.6±9.1%	~84.6%±8.0	93.1±3.5%	63.1±6.2%	19.6±5.6%	> 90%	about 3.9%	about 95.4%	about 6.6%	about 91.4%	–	–	–	–	–	–	–
CC[C@H](C(=O)N1CCCC[C@H]1C(=O)O[C@H](CCc1ccc(OC)c(OC)c1)c1cccc(OCC(=O)NCCNC(=O)COc2cccc([C@@H](CCc3ccc(OC)c(OC)c3)OC(=O)[C@@H]3CCCCN3C(=O)[C@@H](CC)c3cc(OC)c(OC)c(OC)c3)c2)c1)c1cc(OC)c(OC)c(OC)c1 [rimiducid]	–	–	–	–	–	–	–	–	–	–	–	–	unable to induce dimerization	< 100 µM	~50%	induced significant removal	rimiducid-independent	maximal IL-2 secretion	not active
